Laboratory results as given in ChEMBL document CHEMBL1697781, “Assessment of the health effects of chemicals in humans: II. Construction of an adverse effects database for QSAR modeling” (Curr Drug Discov Technol, 2004).

Assays:
Conditions in all cases: human; call rule not given here
Hepatotoxicity [1] = assay: FDA HLAED, liver enzyme composite activity
Hepatotoxicity [2] = assay: FDA HLAED, alkaline phosphatase increase
Hepatotoxicity [3] = assay: FDA HLAED, serum glutamic oxaloacetic transaminase (SGOT) increase
Hepatotoxicity [4] = assay: FDA HLAED, serum glutamic pyruvic transaminase (SGPT) increase
Hepatotoxicity [5] = assay: FDA HLAED, lactate dehydrogenase (LDH) increase
Hepatotoxicity [6] = assay: FDA HLAED, gamma-glutamyl transferase (GGT) increase
Throughout, for GGT Increase - Index Value: reference of the scale not given here.
Throughout, for LDH Increase - Index Value: reference of the scale not given here.

Row | Compound | Composite Activity - Active (Hepatotoxicity [1]; Liver) | Composite Activity - Marginal (Hepatotoxicity [1]; Liver) | Alkaline Phosphatase Increase - Activity Score (Hepatotoxicity [2]) | Alkaline Phosphatase Increase - Index Value (Hepatotoxicity [2]) | Alkaline Phosphatase Increase - Number of Reports (Hepatotoxicity [2]) | SGOT Increase - Activity Score (Hepatotoxicity [3]) | SGOT Increase - Index Value (Hepatotoxicity [3]) | SGOT Increase - Number of Reports (Hepatotoxicity [3]) | SGPT Increase - Activity Score (Hepatotoxicity [4]) | SGPT Increase - Index Value (Hepatotoxicity [4]) | SGPT Increase - Number of Reports (Hepatotoxicity [4]) | LDH Increase - Activity Score (Hepatotoxicity [5]) | LDH Increase - Index Value (Hepatotoxicity [5]) | LDH Increase - Number of Reports (Hepatotoxicity [5]) | GGT Increase - Activity Score (Hepatotoxicity [6]) | GGT Increase - Index Value (Hepatotoxicity [6]) | GGT Increase - Number of Reports (Hepatotoxicity [6]) | Composite Activity - Active (Hepatotoxicity [1]) | Composite Activity - Marginal (Hepatotoxicity [1]) | Composite Activity - Score (Hepatotoxicity [1]) | further results
1 | O=C1CN(/N=C/c2ccc([N+](=O)[O-])o2)C(=O)N1 [NITROFURANTOIN] | 5 | 0 | Active | 32.8 | >= 4 | Active | 52 | >= 4 | Active | 27.4 | >= 4 | Active | 35.6 | >= 4 | Active | 16.4 | >= 4 | – | – | – | Composite Activity - Score (Hepatotoxicity [1]; Liver): Active
2 | CNC(=C[N+](=O)[O-])NCCSCc1csc(CN(C)C)n1 [NIZATIDINE] | – | – | Inactive | 1.4 | >= 4 | Marginally Active | 3 | >= 4 | Inactive | 2.4 | >= 4 | Inactive | 0.5 | >= 4 | Inactive | 0.8 | >= 4 | 0 | 1 | Inactive | –
3 | CC(Cc1ccc(O)c(O)c1)C(C)Cc1ccc(O)c(O)c1 (stereo not drawn) [NORDIHYDROGUAIARETIC ACID] | – | – | Inactive | 0 | < 4 | Inactive | 0 | < 4 | Inactive | 0 | < 4 | Inactive | 0 | < 4 | Inactive | 0 | < 4 | 0 | 0 | Inactive | –
4 | CCn1cc(C(=O)O)c(=O)c2cc(F)c(N3CCNCC3)cc21 [NORFLOXACIN] | 2 | 2 | Active | 6.3 | >= 4 | Active | 5.6 | >= 4 | Marginally Active | 3 | >= 4 | Marginally Active | 3.7 | >= 4 | Inactive | 0 | < 4 | – | – | – | Composite Activity - Score (Hepatotoxicity [1]; Liver): Active
5 | CC1COc2c(N3CCN(C)CC3)c(F)cc3c(=O)c(C(=O)O)cn1c23 (stereo not drawn) [OFLOXACIN] | – | – | Inactive | 1.2 | >= 4 | Inactive | 1.9 | >= 4 | Inactive | 2.1 | >= 4 | Inactive | 1.2 | >= 4 | Inactive | 0.5 | < 4 | 0 | 0 | Inactive | –
6 | Cc1cc2c(s1)Nc1ccccc1N=C2N1CCN(C)CC1 [OLANZAPINE] | – | – | Marginally Active | 3.7 | >= 4 | Active | 16.5 | >= 4 | Active | 15.5 | >= 4 | Inactive | 2.1 | >= 4 | Active | 9.1 | >= 4 | 3 | 1 | Active | –
